Reference: PubChem BioAssay (NCI)
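Five compound concentrations were applied to cells in 96-well plates for 48 hours; endpoints were derived by simple linear interpolation of the resulting dose-response curve. TGI: total growth inhibition.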

Tests used:
Assay in all cases: NCI tumour cell line growth inhibition, 48 h
OVCAR-5 ovarian = system: OVCAR-5 ovarian
RXF 393 renal = system: RXF 393 renal
OVCAR-3 ovarian = system: OVCAR-3 ovarian
UACC-257 melanoma = system: UACC-257 melanoma
CCRF-CEM leukemia = system: CCRF-CEM leukemia
HCT-15 colon = system: HCT-15 colon
NCI-H23 lung = system: NCI-H23 lung
P388 leukemia = system: P388 leukemia
EKVX NSCLC = system: EKVX NSCLC
OVCAR-8 ovarian = system: OVCAR-8 ovarian
U251 CNS = system: U251 CNS
MALME-3M melanoma = system: MALME-3M melanoma
OVCAR-4 ovarian = system: OVCAR-4 ovarian
UACC-62 melanoma = system: UACC-62 melanoma
KM20L2 colon = system: KM20L2 colon
A498 renal = system: A498 renal
SN12K1 renal = system: SN12K1 renal
HOP-92 NSCLC = system: HOP-92 NSCLC
SN12C renal = system: SN12C renal
MOLT-4 leukemia = system: MOLT-4 leukemia
SW-620 colon = system: SW-620 colon
SNB-78 CNS = system: SNB-78 CNS
RPMI-8226 leukemia = system: RPMI-8226 leukemia
SK-MEL-28 melanoma = system: SK-MEL-28 melanoma
HT29 colon = system: HT29 colon
COLO 205 colon = system: COLO 205 colon
SF-539 CNS = system: SF-539 CNS
DLD-1 colon = system: DLD-1 colon
HOP-18 NSCLC = system: HOP-18 NSCLC
P388/ADR leukemia = system: P388/ADR leukemia
IGROV1 ovarian = system: IGROV1 ovarian
HCT-116 colon = system: HCT-116 colon
SK-MEL-5 melanoma = system: SK-MEL-5 melanoma
LOX IMVI melanoma = system: LOX IMVI melanoma
SK-OV-3 ovarian = system: SK-OV-3 ovarian
KM12 colon = system: KM12 colon
XF 498 CNS = system: XF 498 CNS
NCI-H226 lung = system: NCI-H226 lung
A549 NSCLC = system: A549 NSCLC
NCI-H522 lung = system: NCI-H522 lung
SF-295 CNS = system: SF-295 CNS
M19-MEL melanoma = system: M19-MEL melanoma
NCI-H460 lung = system: NCI-H460 lung
UO-31 renal = system: UO-31 renal
K-562 leukemia = system: K-562 leukemia
SF-268 CNS = system: SF-268 CNS
NCI/ADR-RES ovarian = system: NCI/ADR-RES ovarian
SK-MEL-2 melanoma = system: SK-MEL-2 melanoma
SNB-75 CNS = system: SNB-75 CNS
HL-60(TB) leukemia = system: HL-60(TB) leukemia
HOP-62 NSCLC = system: HOP-62 NSCLC
DMS 273 small cell lung = system: DMS 273 small cell lung
MCF7 breast = system: MCF7 breast
HCC-2998 colon = system: HCC-2998 colon

## O=Cc1c(Br)[nH]c2ccccc12
OVCAR-5 ovarian
  TGI: > 100 µM
RXF 393 renal
  TGI: > 100 µM
OVCAR-3 ovarian
  TGI: > 100 µM
UACC-257 melanoma
  TGI: 77.7 µM
CCRF-CEM leukemia
  TGI: > 100 µM
HCT-15 colon
  TGI: > 100 µM
NCI-H23 lung
  TGI: > 100 µM
P388 leukemia
  TGI: > 100 µM
EKVX NSCLC
  TGI: > 100 µM
OVCAR-8 ovarian
  TGI: > 100 µM
U251 CNS
  TGI: > 100 µM
MALME-3M melanoma
  TGI: > 100 µM
OVCAR-4 ovarian
  TGI: > 100 µM
UACC-62 melanoma
  TGI: > 100 µM
KM20L2 colon
  TGI: > 100 µM
A498 renal
  TGI: > 100 µM
SN12K1 renal
  TGI: > 100 µM
HOP-92 NSCLC
  TGI: > 100 µM
SN12C renal
  TGI: > 100 µM
MOLT-4 leukemia
  TGI: > 72.6 µM
SW-620 colon
  TGI: > 100 µM
SNB-78 CNS
  TGI: > 100 µM
RPMI-8226 leukemia
  TGI: > 100 µM
SK-MEL-28 melanoma
  TGI: > 100 µM
HT29 colon
  TGI: > 100 µM
COLO 205 colon
  TGI: > 100 µM
SF-539 CNS
  TGI: > 100 µM
DLD-1 colon
  TGI: > 100 µM
HOP-18 NSCLC
  TGI: > 100 µM
P388/ADR leukemia
  TGI: > 100 µM
IGROV1 ovarian
  TGI: > 100 µM
HCT-116 colon
  TGI: > 100 µM
SK-MEL-5 melanoma
  TGI: > 100 µM
LOX IMVI melanoma
  TGI: > 100 µM
SK-OV-3 ovarian
  TGI: > 100 µM
KM12 colon
  TGI: > 100 µM
XF 498 CNS
  TGI: > 100 µM
NCI-H226 lung
  TGI: > 100 µM
A549 NSCLC
  TGI: > 100 µM
NCI-H522 lung
  TGI: > 100 µM
SF-295 CNS
  TGI: > 100 µM
M19-MEL melanoma
  TGI: > 100 µM
NCI-H460 lung
  TGI: > 100 µM
UO-31 renal
  TGI: > 100 µM
K-562 leukemia
  TGI: > 100 µM
SF-268 CNS
  TGI: > 100 µM
NCI/ADR-RES ovarian
  TGI: > 100 µM
SK-MEL-2 melanoma
  TGI: > 100 µM
SNB-75 CNS
  TGI: > 100 µM
HL-60(TB) leukemia
  TGI: > 100 µM
HOP-62 NSCLC
  TGI: > 100 µM
DMS 273 small cell lung
  TGI: > 100 µM
MCF7 breast
  TGI: > 100 µM
HCC-2998 colon
  TGI: > 100 µM
